Experimental data: patent US9018258B2, “Substituted 1-benzylcycloalkylcarboxylic acids and the use thereof” (Bayer Intellectual Property GmbH, priority 2010, dated 2015)

Assays:
sGC = target: T1, sGC (Rattus norvegicus, UniProt P20595); assay: Action at a recombinant guanylate cyclase reporter cell line (CHO reporter cell); format: cell-based; conditions: CHO reporter cell in vitro
T1 construct: expressed in transfected cells; host or cells: CHO reporter cell
Description: The cellular action of the compounds according to the invention is determined at a recombinant guanylate cyclase reporter cell line, as described in F. Wunder et al., Anal. Biochem. 339, 104-112 (2005).

[1] = target: T2, soluble guanylate cyclase (sGC) (Rattus norvegicus, UniProt P20595); assay: Stimulation of sGC enzyme activity (PPi detection, luciferase); format: biochemical; conditions: sGC enzyme in vitro; for EC50: read-out: EC50 (concentration at 50% of maximum efficacy), activating action at the sGC enzyme
T2 construct: made in house; host or cells: Sf9 insect cells (baculovirus)
T2 sequence (P19686 whole entry partner): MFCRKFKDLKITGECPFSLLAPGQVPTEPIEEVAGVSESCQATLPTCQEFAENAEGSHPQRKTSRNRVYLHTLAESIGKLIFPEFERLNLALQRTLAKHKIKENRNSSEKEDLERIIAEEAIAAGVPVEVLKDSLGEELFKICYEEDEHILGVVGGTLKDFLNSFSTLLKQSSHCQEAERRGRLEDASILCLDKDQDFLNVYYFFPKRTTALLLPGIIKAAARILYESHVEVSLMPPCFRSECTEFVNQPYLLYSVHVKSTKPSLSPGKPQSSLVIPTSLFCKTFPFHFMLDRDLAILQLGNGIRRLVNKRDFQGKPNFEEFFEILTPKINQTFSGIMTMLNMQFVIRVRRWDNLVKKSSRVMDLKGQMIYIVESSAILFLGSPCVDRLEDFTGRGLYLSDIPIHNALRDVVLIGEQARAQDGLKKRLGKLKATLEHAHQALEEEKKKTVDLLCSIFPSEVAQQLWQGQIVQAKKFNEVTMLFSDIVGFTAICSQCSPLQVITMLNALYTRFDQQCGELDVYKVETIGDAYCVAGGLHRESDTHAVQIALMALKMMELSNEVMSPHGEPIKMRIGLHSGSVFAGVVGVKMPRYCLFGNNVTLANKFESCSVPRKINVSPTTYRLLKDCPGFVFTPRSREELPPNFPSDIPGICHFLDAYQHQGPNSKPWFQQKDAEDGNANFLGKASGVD
T2 sequence (P20595 whole entry): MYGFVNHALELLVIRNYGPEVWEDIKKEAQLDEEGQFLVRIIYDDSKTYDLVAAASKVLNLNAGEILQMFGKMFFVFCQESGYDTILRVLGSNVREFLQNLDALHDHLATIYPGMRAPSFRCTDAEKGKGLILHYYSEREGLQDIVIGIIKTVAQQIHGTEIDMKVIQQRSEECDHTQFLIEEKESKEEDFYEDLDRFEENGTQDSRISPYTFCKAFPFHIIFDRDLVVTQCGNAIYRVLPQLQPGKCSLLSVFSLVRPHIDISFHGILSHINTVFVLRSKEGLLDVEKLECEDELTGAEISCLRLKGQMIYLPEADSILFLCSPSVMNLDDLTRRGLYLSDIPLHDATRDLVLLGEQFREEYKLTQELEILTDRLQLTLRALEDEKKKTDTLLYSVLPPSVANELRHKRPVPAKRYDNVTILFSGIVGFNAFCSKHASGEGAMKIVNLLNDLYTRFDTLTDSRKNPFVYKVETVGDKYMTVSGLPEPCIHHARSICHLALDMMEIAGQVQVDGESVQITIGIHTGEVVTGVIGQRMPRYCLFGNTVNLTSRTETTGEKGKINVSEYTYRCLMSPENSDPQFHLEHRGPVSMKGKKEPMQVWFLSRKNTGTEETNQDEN
Description: Soluble guanylate cyclase (sGC) converts on stimulation GTP into cGMP and pyrophosphate (PPi). PPi is detected with the aid of the assay described below. The signal produced in the assay increases as the reaction progresses and serves as a measure of the sGC enzyme activity under the given stimulation.
To carry out the assay, 29 μl of enzyme solution [0-10 nM soluble guanylate cyclase (prepared according to Honicka et al., J. Mol. Med. 77, 14-23 (1999)) in 50 mM TEA, 2 mM MgCl2, 0.1% BSA (fraction V), 0.005% Brij®, pH 7.5] are initially introduced into a microplate, and 1 μl of the substance to be tested (as a serially diluted solution in DMSO) is added. The mixture is incubated at room temperature for 10 min. Then 20 μl of detection mix [1.2 nM Firefly Luciferase (Photinus pyralis luciferase, Promega), 29 μM dehydroluciferin (prepared according to Bitler & McElroy, Arch. Biochem. Biophys. 72, 358 (1957)), 122 μM luciferin (Promega), 153 μM ATP (Sigma) and 0.4 mM DTT (Sigma) in 50 mM TEA, 2 mM MgCl2, 0.1% BSA (fraction V), 0.005% Brij®, pH 7.5] are added. The enzyme reaction is started by adding 20 μl of substrate solution [1.25 mM guanosine 5′-triphosphate (Sigma) in 50 mM TEA, 2 mM MgCl2, 0.1% BSA (fraction V), 0.005% Brij®, pH 7.5] and measured continuously in a luminometer. The extent of the stimulation by the substance to be tested can be determined relative to the signal of the unstimulated reaction.
The activation of haem-free guanylate cyclase is examined by addition of 25 μM of 1H-1,2,4-oxadiazolo[4,3-a]quinoxalin-1-one (ODQ) to the enzyme solution and subsequent incubation for 30 minutes and compared to the stimulation of the native enzyme.

saphenous artery = assay: Vasorelaxant effect in vitro (phenylephrine-contracted saphenous artery rings); parameters: species or system Rabbits; conditions: Oryctolagus cuniculus; rabbit saphenous artery rings, phenylephrine-induced contraction
Description: Rabbits are anaesthetized and sacrificed by intravenous injection of thiopental sodium (about 50 mg/kg) and exsanguinated. The saphenous artery is removed and divided into rings 3 mm wide. the rings are mounted singly on in each case a pair of triangular hooks open at the end and made of 0.3 mm-thick special wire (Remanium®). Each ring is placed under an initial tension in 5 ml organ baths with Krebs-Henseleit solution which is at 37° C., is gassed with carbogen and has the following composition: NaCl 119 mM; KCl 4.8 mM; CaCl2×2 H2O 1 mM; MgSO4×7 H2O 1.4 mM; KH2PO4 1.2 mM; NaHCO3 25 mM; glucose 10 mM; bovine serum albumin 0.001%. The force of contraction is detected with Statham UC2 cells, amplified and digitized via A/D converters (DAS-1802 HC, Keithley Instruments, Munich) and recorded in parallel on chart recorders. Contractions are induced by addition of phenylephrine.
After several (generally 4) control cycles, the substance to be investigated is added in each further run in increasing dosage, and the level of the contraction achieved under the influence of the test substance is compared with the level of the contraction reached in the last preceding run. The concentration necessary to reduce the contraction reached in the preceding control by 50% is calculated from this (IC50). The standard application volume is 5 μl. The proportion of DMSO in the bath solution corresponds to 0.1%.

GAL4-PPARα = target: T3, GAL4-PPARα (Homo sapiens, UniProt Q07869); assay: Cellular PPAR transactivation assay, GAL4-PPARα chimera in CHO-K1 cells; format: cell-based; conditions: for Emax: CHO-K1, maximum effect relative to reference compound (Example 73 of EP 1 452 521-A1 = 100%), read-out: PPARα efficacy; for EC50: CHO-K1 cells, luciferase reporter, 6 h stimulation
T3 construct: expressed in transfected cells
T3 sequence (Q07869 167-468): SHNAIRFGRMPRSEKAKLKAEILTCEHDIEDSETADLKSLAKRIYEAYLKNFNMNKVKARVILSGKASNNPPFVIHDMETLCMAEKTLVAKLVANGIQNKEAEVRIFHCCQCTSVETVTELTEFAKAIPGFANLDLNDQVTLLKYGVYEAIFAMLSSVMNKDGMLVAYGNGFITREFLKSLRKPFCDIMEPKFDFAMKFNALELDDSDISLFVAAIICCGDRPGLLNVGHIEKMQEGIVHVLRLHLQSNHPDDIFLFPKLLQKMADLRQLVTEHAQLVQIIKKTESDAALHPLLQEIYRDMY
From the text: (§1) A cellular assay is used to test for potentially activating properties of the compounds according to the invention with respect to the three human isoforms of the peroxisome proliferator-activated receptors (PPARα, PPARγ and PPARδ).
(§2) Since mammalian cells contain different endogenous nuclear receptors which may complicate an unambiguous interpretation of the results, an established chimera system is used in which the respective ligand binding domain of the human PPAR isoforms is fused to the DNA binding domain of the yeast transcription factor GAL4. The resulting GAL4-PPARα, γ and δ chimeras are co-transfected and stably expressed in CHO cells having a reporter construct.
(§3) The GAL4-PPAR expression constructs contain the ligand binding domain of PPARα (amino acids 167-468), PPARγ (amino acids 203-506) and PPARδ (amino acids 138-442) which are PCR-amplified and cloned into the vector pcDNA3.1. The respective expression vectors already contain the GAL4 DNA binding domain (amino acids 1-147) of the vector pFC2-dbd (Stratagene). The reporter construct, which contains five copies of the GAL4 binding site upstream of a thymidine kinase promoter, expresses firefly luciferase (Photinus pyralis) following activation and binding of GAL4-PPARα, γ or δ.
(§4) The day before the test, CHO-K1 cells (chinese hamster ovary; ATCC CCL-61) each stably expressing one of the above-described GAL4-PPAR chimeras and the luciferase reporter gene construct are sown in medium [Optimem (GIBCO) with 2% activated carbon-purified foetal calf serum (Hyclone), 1.35 mM sodium pyruvate (GIBCO) and 0.2% sodium bicarbonate (GIBCO)] in a density of 1×10^3 cells in 96-well microtitre plates (Greiner) and kept in a cell incubator (96% atmospheric humidity, 5% v/v CO2, 37° C.). On the test day, the substances to be tested are taken up in the medium mentioned above, but without addition of calf serum, and added in various concentrations to the cells. After a stimulation period of 6 h, the luciferase activity is measured using a video camera. The relative light units measured give, as a function of the substance concentration, a sigmoidal stimulation curve. The EC50 values are calculated using the computer programme GraphPad PRISM (Version 3.02). The maximum effect of a test substance in the respective PPAR assay is determined as efficacy in percent in comparison to an appropriate reference compound whose maximum effect is defined as 100%.
(§5) The reference compound selected here was the compound 2-(3-{[(2-chloro-4-propoxybenzoyl)-amino]methyl}-4-ethoxybenzyl)tetrahydrofuran-2-carboxylic acid [Example 73 of EP 1 452 521-A1] which is described in the prior art as a potent pan-PPAR agonist.

GAL4-PPARδ = target: T4, GAL4-PPARδ (Homo sapiens, UniProt Q03181); assay: Cellular PPAR transactivation assay, GAL4-PPARδ chimera in CHO-K1 cells; format: cell-based; conditions: for Emax: CHO-K1, maximum effect relative to reference compound (Example 73 of EP 1 452 521-A1 = 100%), read-out: PPARδ efficacy; for EC50: CHO-K1 cells, luciferase reporter, 6 h stimulation
T4 construct: PPARδ (amino acids 138-442); expressed in transfected cells
T4 sequence (Q03181 138-441 limits assumed): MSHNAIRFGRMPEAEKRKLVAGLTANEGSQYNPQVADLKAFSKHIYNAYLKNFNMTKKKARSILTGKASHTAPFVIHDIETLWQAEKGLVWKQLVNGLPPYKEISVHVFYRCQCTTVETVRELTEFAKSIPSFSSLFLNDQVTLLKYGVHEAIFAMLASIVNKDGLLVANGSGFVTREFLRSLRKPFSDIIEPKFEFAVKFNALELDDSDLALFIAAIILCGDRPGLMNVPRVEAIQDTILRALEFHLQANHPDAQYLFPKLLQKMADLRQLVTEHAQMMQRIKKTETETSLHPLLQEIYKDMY
From the text: as §1, §2, §3, §4, §5

GAL4-PPARγ = target: T5, GAL4-PPARγ (Homo sapiens, UniProt P37231); assay: Cellular PPAR transactivation assay, GAL4-PPARγ chimera in CHO-K1 cells; format: cell-based; conditions: for Emax: CHO-K1, maximum effect relative to reference compound (Example 73 of EP 1 452 521-A1 = 100%), read-out: PPARγ efficacy; for EC50: CHO-K1 cells, luciferase reporter, 6 h stimulation
T5 construct: PPARγ (amino acids 203-506); expressed in transfected cells
T5 sequence (P37231 203-505 limits assumed): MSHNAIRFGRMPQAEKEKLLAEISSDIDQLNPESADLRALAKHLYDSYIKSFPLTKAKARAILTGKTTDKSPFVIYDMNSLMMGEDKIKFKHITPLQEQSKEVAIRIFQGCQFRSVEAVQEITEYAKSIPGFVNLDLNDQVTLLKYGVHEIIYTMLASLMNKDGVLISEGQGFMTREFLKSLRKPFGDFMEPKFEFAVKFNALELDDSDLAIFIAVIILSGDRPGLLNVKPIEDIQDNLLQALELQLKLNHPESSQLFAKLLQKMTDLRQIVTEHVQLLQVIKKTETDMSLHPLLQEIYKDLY
From the text: as §1, §2, §3, §4, §5

T1 sequence (P19686 whole entry partner): as the sequence (P19686 whole entry partner) above
T1 sequence (P20595 whole entry): as the sequence (P20595 whole entry) above

SMILES	MEC (minimum effective concentration), sGC-activating activity in the CHO reporter cell (sGC) [nM]	MEC (minimum effective concentration), activating action at the sGC enzyme [1] [nM]	EC50 [1] [nM]	IC50 (saphenous artery) [nM]	Emax (GAL4-PPARα) [%]	EC50 (GAL4-PPARα) [nM]	Emax (GAL4-PPARδ) [%]	EC50 (GAL4-PPARδ) [nM]	Emax (GAL4-PPARγ) [%]	EC50 (GAL4-PPARγ) [nM]
CCOC(c1ccc(Cl)c(NC(=O)[C@H](c2ccc(Cl)cc2)[C@@H](C)C(F)(F)F)c1)C1(C(=O)O)CCC1 (single isomer, unassigned) [Example 109]	0.3	0.7	20	338						
COc1cc([C@@H](C(=O)Nc2cc(CC3(C(=O)O)CC3)ccc2Cl)[C@@H](C)C(F)(F)F)ccc1Cl [Example 43, 1-(4-chloro-3-{[(2S,3R)-2-(4-chloro-3-methoxy-phenyl)-4,4,4-trifluoro-3-methylbutanoyl]amino}-benzyl)cyclopropanecarboxylic acid]	3	3.4	24		0	> 10000	0	> 10000	10	1800
C[C@H]([C@H](C(=O)Nc1cc(CC2(C(=O)O)CC2)ccc1F)c1ccc(Cl)cc1)C(F)(F)F [Example 51, (+)-1-(3-{[(2S,3R)-2-(4-Chlorophenyl)-4,4,4-trifluoro-3-methylbutanoyl]amino}-4-fluorobenzyl)-cyclopropanecarboxylic acid]	0.3	3.0	21		0	> 10000	0	> 10000	20	1900
